These results are taken from patent US20260226034A1 (The Rockefeller University, priority 2023, published 2026).

The first assay addresses NSP14 (Severe acute respiratory syndrome coronavirus 2, UniProt P0DTD1). Description: NSP14 MTase inhibition assay at 37° C. (MTase-Glo SAH detection). It counts as biochemical, SARS-CoV-2. Particulars: 0.3 nM NSP14, 2.5 μM SAM, 2.5 μM GpppA RNA, 45 min at 37° C.; read-out: Nsp14 Mtase Inh. IC50. On the procedure: NSP14 MTase assay at 37° C. (0.3 nM NSP14 as final enzyme concentration)
The NSP14 MTase assay at 37° C. is carried out in 384-well flat bottom polystyrene microplates (Greiner, 781075). Per well, 10 μl of 1×NSP14 reaction buffer (50 mM Tris-HCl, pH 7.5, 6 mM KCl, 1.25 mM MgCl2, 1 mM DTT, and 0.01% Tween-20) are dispensed in columns 1-23 using a Thermo Multidrop Combi dispenser (Thermo Scientific). 0.1 μl of serially diluted compounds in DMSO are dispensed into columns 1-22 of the assay microplates with a Janus 384 MDT NanoHead (PerkinElmer). In wells of column 23, which serve as negative controls, no compounds are added.
The NSP14 reaction is started by adding 4 μl of a 4× substrate solution containing S-adenosyl methionine (SAM, 10 μM) and GpppA RNA (10 μM) prepared in 1×NSP14 reaction buffer. Any addition of reagents is followed by a 30 second centrifugation at 500×g to ensure that all liquid was collected at the bottom of the well. The final concentrations of NSP14, SAM, and GpppA RNA are 0.3 nM, 2.5 μM, and 2.5 μM, respectively. The final reaction volume is 16 μl. Plates are sealed and incubated for 45 min at 37° C.
For SAH detection, 1 μl 5× MTase-Glo™ Reagent (Promega) is added to each well, plates are mixed for 1-2 minutes and incubated at room temperature for 30 minutes. 5 μl of room-temperature MTase-Glo™ Detection Solution (Promega) is added to each well, plates are mixed for 1-2 minutes and incubated at room temperature for 30 minutes. Luminescence signals of each well are recorded in relative light units (RLUs) using a Biotek Synergy Neo plate reader (BioTek, Winooski, VT). The SAH production is normalized against the positive control (PK, column 24) and negative control (NK, column 23) as follows: normalized % inhibition=100×(RLUsample-RLUaverageNK)/(RLUaveragePK-RLUaverageNK).
As for `Cc1c(S(=O)(=O)c2ccc3[nH]ncc3c2)cc(C(=O)N[C@@H]2CCN(c3nccc(C(F)(F)F)n3)C2)n1C` [A.66], the IC50 – broadly, the midpoint of a concentration-inhibition curve – turned out to be 0.81 nM.

In the case of `Cc1c(S(=O)(=O)c2ccc3[nH]ncc3c2)cc(C(=O)NC2(CO)CCN(c3ncc(F)cn3)C2)n1C` (single isomer, unassigned) [A.117, 4-((1H-indazol-5-yl)sulfonyl)-N-(1-(5-fluoropyrimidin-2-yl)-3-(hydroxymethyl)pyrrolidin-3-yl)-1,5-dimethyl-1H-pyrrole-2-carboxamide], the concentration for half-maximal inhibition (IC50) came out at 2.8 nM.

As for `Cc1c(S(=O)(=O)c2ccc3c(cnn3C)c2)cc(C(=O)NCc2c(F)ccc3cnn(C)c23)n1C` [A.18], the 50% inhibitory concentration (IC50) came to 18 nM.

As to `Cc1c(S(=O)(=O)c2ccc3[nH]ncc3c2)cc(C(=O)N[C@@H]2CCN(c3ccc(F)nn3)C2)n1C` [A.53], the IC50 stood at 0.36 nM.

Turning to `Cc1c(S(=O)(=O)c2ccc3occc3c2)cc(C(=O)NCc2cccc3cnn(C)c23)n1C` [A.8], the IC50 was 1.8 nM.

With `Cc1c(S(=O)(=O)c2cc(C#N)c3[nH]ncc3c2)cc(C(=O)N[C@@H]2CCN(c3ncc(F)cn3)C2)n1C` [A.63], the IC50 is 0.46 nM.

For `Cc1c(S(=O)(=O)c2ccc3[nH]ncc3c2)cc(C(=O)N[C@@H]2CCN(c3ncc(F)cn3)C2)n1C` [A.34, N-[(3R)-1-(5-fluoropyrimidin-2-yl)pyrrolidin-3-yl]-4-(1H-indazol-5-ylsulfonyl)-1,5-dimethyl-pyrrole-2-carboxamide], the IC50 is 0.17 nM.

In the case of `Cc1c(S(=O)(=O)c2ccc3c(cnn3C)c2)cc(C(=O)NCc2c(F)ccc3ncn(C4CC4)c23)n1C` [A.4, N-[(3-cyclopropyl-5-fluoro-benzimidazol-4-yl)methyl]-1,5-dimethyl-4-(1-methylindazol-5-yl)sulfonyl-pyrrole-2-carboxamide], the 50% inhibitory concentration (IC50) came out at 0.5 nM.

For `Cc1c(S(=O)(=NCCO)c2ccc3[nH]ncc3c2)cc(C(=O)N[C@@H]2CCN(c3ncc(F)cn3)C2)n1C` (stereo partly drawn) [A.102], the IC50 turned out to be 0.46 nM.

Consider `Cc1c(S(=O)(=O)c2ccc3[nH]ncc3c2)cc(C(=O)NC2CN(c3ncc(F)cn3)C2)n1C` [A.36], for which the IC50 stood at 2.2 nM.

For the compound `Cc1c(S(=O)(=O)c2ccc3[nH]ncc3c2)cc(C(=O)N[C@@H]2CCN(c3ncc(F)cc3F)C2)n1C` [A.54], the concentration for half-maximal inhibition (IC50) was under 0.15 nM.

On to `Cc1c(S(=O)(=O)c2ccc3[nH]ncc3c2)cc(C(=O)N[C@@H]2CCN(c3ccc(F)cn3)C2)n1C` [A.51], for which the concentration for half-maximal inhibition (IC50) was under 0.15 nM.

In the case of `Cc1c(S(=O)(=O)c2ccc3[nH]ncc3c2)cc(C(=O)N[C@@H]2CCN(Cc3ccc(C#N)cc3)C2)n1C` [A.101], the half-inhibitory concentration (IC50) stood at 26 nM.

On to `Cc1c(S(=O)(=O)c2ccc(C#N)cc2)cc(C(=O)NCc2cccc3cnn(C)c23)n1C` [A.24], for which the IC50 came out at 89 nM.

As to `Cc1c(S(=O)(=O)c2ccc3[nH]ncc3c2)cc(C(=O)N[C@@H]2CCN(c3cccn4nccc34)C2)n1C` [A.59], the IC50 is 0.18 nM.

Consider `Cc1c(S(=O)(=O)c2ccccc2)cc(C(=O)NCc2cccc3cnn(C)c23)n1C` [A.16], for which the IC50 is 15 nM.

Turning to `Cc1c(S(=O)(=O)c2cc(Cl)c3[nH]ncc3c2)cc(C(=O)N[C@@H]2CCN(c3ccnnc3)C2)n1C` [A.119], the half-inhibitory concentration (IC50) came out at 0.37 nM.

As for `Cc1c(S(=O)(=O)c2ccc3c(cnn3C)c2)cc(C(=O)NCc2cccc3cnn(C)c23)n1C` [A.12], the IC50 turned out to be 5.6 nM.

The same assay, now with this note: 37° C., 0.3 nM NSP14, 2.5 μM SAM, 2.5 μM GpppA RNA; read-out: Nsp14 Mtase Inh. IC50.
In the case of `Cc1c(S(=O)(=O)c2ccc3[nH]ncc3c2)cc(C(=O)NCc2c[nH]c(=O)c3cnccc23)n1C` [B.130], the 50% inhibitory concentration (IC50) is under 0.15 nM.

Take `Cc1c(S(=O)(=O)c2cc(Cl)cc(C#N)c2)cc(C(=O)NCc2c(Cl)cnn2C)n1C` [B.193]: the concentration for half-maximal inhibition (IC50) stood at 6.4 nM.

For `Cc1c(S(=O)(=O)c2ccc3[nH]ncc3c2)cc(C(=O)NCc2c[nH]c(=O)c3ccccc23)n1C` [B.21], the 50% inhibitory concentration (IC50) came out at 0.54 nM.

On to `Cc1c(S(=O)(=O)c2ccc3[nH]ncc3c2)cc(C(=O)NCc2c(Cl)cc[nH]c2=O)n1C` [B.187], for which the concentration for half-maximal inhibition (IC50) was determined as 0.61 nM.

As for `Cc1c(S(=O)(=O)c2cc(F)c3[nH]ncc3c2)cc(C(=O)NCc2c(F)ccc3ncn(C4CC4)c23)n1C` [B.102], the half-maximal inhibitory concentration (IC50) is under 0.15 nM.

For the compound `Cc1c(S(=O)(=O)c2ccc3[nH]ncc3c2)cc(C(=O)NCc2c(F)cccc2OCCS(C)(=O)=O)n1C` [B.108], the IC50 was under 0.15 nM.

`Cc1c(S(=O)(=O)c2cc(C#N)c3[nH]ncc3c2)cc(C(=O)NCc2c(F)ccc3cnn(C4CC4)c23)n1C` [B.98]: the IC50 stood at 0.5 nM.

For the compound `Cc1c(S(=O)(=O)c2cc(F)c3[nH]ncc3c2)cc(C(=O)NCc2c(F)ccc3nnn(C4CC4)c23)n1C` [B.94], the IC50 was under 0.15 nM.

Take `Cc1c(S(=O)(=O)c2ccc3[nH]ncc3c2)cc(C(=O)NCc2c(Cl)cnn2C)n1C` [B.142]: the concentration for half-maximal inhibition (IC50) was 1.4 nM.

On to `Cc1c(S(=O)(=O)c2ccc3[nH]ncc3c2)cc(C(=O)NCc2c(F)cc(CCN(C)C)cc2F)n1C` [B.114], for which the IC50 was found to be 184 nM.

Take `Cc1c(S(=O)(=O)c2ccc3[nH]ncc3c2)cc(C(=O)NCc2c(F)ccc3nnn(C4CC4)c23)n1C` [B.81]: the 50% inhibitory concentration (IC50) is under 0.15 nM.

As for `Cc1c(S(=O)(=O)c2ccc3[nH]ncc3c2)cc(C(=O)NCc2cncc3cnn(C)c23)n1C` [B.49], the 50% inhibitory concentration (IC50) was found to be 0.49 nM.

With `Cc1c(S(=O)(=O)c2cc(C(F)F)c3[nH]ncc3c2)cc(C(=O)NCc2cccc3cnn(C4CC4)c23)n1C` [B.60], the IC50 came out at 5.3 nM.

Turning to `Cc1c(S(=O)(=O)c2ccc3[nH]ncc3c2)cc(C(=O)NCc2c(F)cc(F)cc2F)n1C` [B.86], the 50% inhibitory concentration (IC50) was 0.41 nM.

Take `Cc1c(S(=O)(=O)c2ccc3c(c2)CNC3)cc(C(=O)NCc2cccc3cnn(C)c23)n1C` [B.10]: the half-maximal inhibitory concentration (IC50) is 113 nM.

Consider `Cc1c(S(=O)(=O)c2ccc3[nH]ncc3c2)cc(C(=O)NC2CCc3cc(C(F)(F)F)ccc32)n1C` (racemic) [B.71], for which the half-maximal inhibitory concentration (IC50) was found to be 36 nM.

As to `Cc1c(S(=O)(=O)c2cccc(C#N)c2)cc(C(=O)NCc2cccc3ncn(C4CC4)c23)n1C` [B.3], the half-maximal inhibitory concentration (IC50) was found to be 5.3 nM.

Consider `Cc1c(S(=O)(=O)c2ccc3[nH]ncc3c2)cc(C(=O)NCc2ccccc2C#N)n1C` [B.101], for which the IC50 turned out to be 192 nM.

On to `Cc1c(S(=O)(=O)c2cc(F)c3[nH]ncc3c2)cc(C(=O)NCc2ccnn2C)n1C` [B.137], for which the IC50 came to 10 nM.

As for `Cc1c(S(=O)(=O)c2ccc3[nH]ncc3c2)cc(C(=O)NCc2ccnn2CC(F)F)n1C` [B.162], the concentration for half-maximal inhibition (IC50) amounted to 2.2 nM.

On to `Cc1c(S(=O)(=O)c2ccc3[nH]ncc3c2)cc(C(=O)NCc2c(F)cc(CN(C)C)cc2F)n1C` [B.68], for which the IC50 amounted to 4.1 nM.

For `Cc1c(S(=O)(=O)c2ccc3[nH]nc(F)c3c2)cc(C(=O)NC(c2ccccc2)c2ccccc2)n1C` [B.126], the IC50 amounted to 108 nM.

For the compound `Cc1c(S(=O)(=O)c2ccc3[nH]ncc3c2)cc(C(=O)NCc2ccc(=O)n(C)c2)n1C` [B.177], the IC50 came to 138 nM.

Consider `Cc1c(S(=O)(=O)c2ccc3[nH]ncc3c2)cc(C(=O)NCCN(C)c2ncc(F)cn2)n1C` [B.198], for which the IC50 is 16 nM.

For `Cc1c(S(=O)(=O)c2ccc3[nH]ncc3c2)cc(C(=O)NCc2c(F)ccc3c2N(C)C(=O)C3)n1C` [B.52], the IC50 came out at 0.15 nM.

For `Cc1c(S(=O)(=O)c2ccc3[nH]ncc3c2)cc(C(=O)NCc2nccc3cnn(C4CC4)c23)n1C` [B.118], the IC50 was found to be 0.48 nM.

Regarding `Cc1c(S(=O)(=O)c2ccc3[nH]ncc3c2)cc(C(=O)NCc2ccc3ncnn3c2)n1C` [B.149], the half-inhibitory concentration (IC50) turned out to be 18 nM.

In the case of `Cc1c(S(=O)(=O)c2cc(Cl)c3[nH]ncc3c2)cc(C(=O)NS(=O)(=NCC(F)(F)F)c2ccccc2)n1C` (stereo not drawn) [B.195], the half-maximal inhibitory concentration (IC50) was 12 nM.

For the compound `Cc1cc(C)n(C)c(=O)c1CNC(=O)c1cc(S(=O)(=O)c2ccc3[nH]ncc3c2)c(C)n1C` [B.164], the 50% inhibitory concentration (IC50) turned out to be 0.85 nM.

For `Cc1c(S(=O)(=O)c2ccc3[nH]ncc3c2)cc(C(=O)NNc2c(F)cccc2F)n1C` [B.75], the IC50 was found to be 9.6 nM.

Regarding `Cc1c(S(=O)(=O)c2cccc(C#N)c2)cc(C(=O)NCc2cccc3cnn(C4CC4)c23)n1C` [B.14], the half-maximal inhibitory concentration (IC50) turned out to be 23.1 nM.

Turning to `Cc1c(S(=O)(=O)c2ccc3[nH]ncc3c2)cc(C(=O)N[C@H]2CCc3c(F)ccc(F)c32)n1C` (single isomer, unassigned) [B.140], the IC50 was found to be 0.31 nM.

In the case of `Cc1c(S(=O)(=O)c2ccc3[nH]ncc3c2)cc(C(=O)NCc2c[nH]c3ncccc23)n1C` [B.132], the IC50 is 0.6 nM.

As to `Cc1c(S(=O)(=O)c2ccc3[nH]ncc3c2)cc(C(=O)NCc2cc(F)cc3cn(C)nc23)n1C` [B.97], the half-inhibitory concentration (IC50) stood at 11 nM.

Consider `Cc1c(S(=O)(=O)c2ccc3[nH]ncc3c2)cc(C(=O)NCc2cn(C)c(=O)cn2)n1C` [B.156], for which the IC50 came to 6 nM.

Regarding `Cc1c(S(=O)(=O)c2ccc3[nH]ncc3c2)cc(C(=O)NC2Cc3ccccc32)n1C` (stereo not drawn) [B.120], the IC50 was 1.2 nM.
